Tests used:
H. pylori = assay: Formation of carboxylic acid from aliphatic amide in H. pylori enriched liquid culture, SPME of vapor phase and GC-MS (SIM); type: cell-based, Helicobacter pylori; conditions: for formation of the respective acid in the vapor phase: amide added to medium containing H. pylori (collection cultures and clinical isolates), GC-MS
Method: In vitro ex vivo experimental tests were carried out in H. pylori cultures from collections and clinical isolates. […] The experimental tests were performed in vitro ex vivo in H. pylori cultures from collection and clinical isolates enriched in liquid medium (F12) under microaerophilic conditions. These compounds were administrated as diluted aqueous solutions (0.5 mL) to the liquid culture media (25 mL), 120 mL glass flasks hermetically sealed and encapsulated with a cap containing a septum. The collection of the acids that were formed after the amide administration described in 1 was carried out after acidification of the medium with acid tartaric (mimetizing the stomach's pH) and exposing to the flask's vapor phase for 5 minutes at 37° C. a solid-phase microextraction fiber (SPME) coated with carbowax/divinilbenzene (65 μm thickness). The search in vapor phase for the carboxylic acids generated by the bacterium's aliphatic amidases activity on the amides administrated was carried out by means of gas chromatography using a capillary column of intermediate polarity. The detection was performed by mass spectrometry comprising 3 scan cycles with selective ion monitoring (SIM) the m/z=74 for the propionic acid and m/z=88 for butyric acid.

[1] = Amide incubated in flask comprising only the medium, without any bacteria addition, SPME GC-MS; type: physicochemical; conditions: 0.5 mL of 20 mM solution, 60 minutes incubation at 37° C.
Method: These compounds were administrated as diluted aqueous solutions (0.5 mL) to the liquid culture media (25 mL), 120 mL glass flasks hermetically sealed and encapsulated with a cap containing a septum.
The collection of the acids that were formed after the amide administration described in 1 was carried out after acidification of the medium with acid tartaric (mimetizing the stomach's pH) and exposing to the flask's vapor phase for 5 minutes at 37° C. a solid-phase microextraction fiber (SPME) coated with carbowax/divinilbenzene (65 μm thickness).
The search in vapor phase for the carboxylic acids generated by the bacterium's aliphatic amidases activity on the amides administrated was carried out by means of gas chromatography using a capillary column of intermediate polarity.
The detection was performed by mass spectrometry comprising 3 scan cycles with selective ion monitoring (SIM) the m/z=74 for the propionic acid and m/z=88 for butyric acid.

SMILES	chromatographic area corresponding to the propanoic acid (H. pylori; 0.5 mL of 20 mM solution, medium enriched with H. pylori, 60 minutes incubation at 37° C., vapor phase SPME GC-MS m/z=74)	formation of the respective acid in the vapor phase (H. pylori)	chromatographic peak corresponding to propanoic acid [1]	chromatographic area corresponding to the butyric acid (H. pylori; 0.5 mL of 20 mM solution, medium enriched with H. pylori, 60 minutes incubation at 37° C., vapor phase SPME GC-MS m/z=88)	chromatographic peak corresponding to butyric acid [1]
CCC(N)=O [propionamide]	7.0×10^5	the formation of the respective acids takes place	did not produce any chromatographic peak	–	–
CCCC(N)=O [butyramide]	–	the formation of the respective acids takes place	–	6.5×10^5	did not derive any chromatographic peak
